Patent US9238036B2, “Pharmaceutical uses of lanosta-8,24-dien-3-ols” (priority 2008, dated 2016)

What was measured:
Assay type in all cases: in vivo
[1] = test system: PKC; assay: PKC activity on the skin of mice, ELISA; conditions: topical, FIG. 2
Procedure: (§1) In all examples that follow, 20-30 g male mice were kept in filtered-air ventilated cages, with controlled temperature (22±2° C.) and humidity (50-60%), 12 h light/12 h dark cycles, with free access to water and food. The animals remained in the lab for an adaptation period of at least 1 hour before the pharmacological tests, held between 8:00 and 17:00 h.
This was an evaluation of the effect of the compounds of the invention upon the PKC activity, on the skin of mice. The animals received the following 100 μg/ear compositions: • a positive control, namely TPA (tetradecanoylphorbol-13-acetate), 2.5 μg/ear, in a vehicle comprising a 3:1 mixture of acetone:ethanol. • a negative control, namely the vehicle, which is a 3:1 mixture of acetone:ethanol; • A mixture of 100 μg euphol and 2.5 μg TPA, per ear, in a vehicle comprising a 3:1 mixture of acetone:ethanol.
5-member groups of mice were topically applied, in the inner surface of the ears, the compositions above. The PKC activity, before and after exposure to the tested compositions, was measured using ELISA (enzyme-linked immuno sorbent assay).

[2] = test system: mice ears; assay: Ear thickness after topical TPA (irritating effect / inflammation), mice ears; conditions: euphol 100 μg/ear with TPA 2.5 μg/ear, acetone:ethanol 3:1, FIG. 1
Procedure: as §1
A characterization of the irritating effect of certain chemical compounds was effected, by comparing the results of treating mice ears topically with: • a positive control, namely TPA (tetradecanoylphorbol-13-acetate), 2.5 μg/ear, in a vehicle comprising a 3:1 mixture of acetone:ethanol. • a negative control, namely the vehicle, which is a 3:1 mixture of acetone:ethanol; • Euphol, 100 μg/ear, a compound of the invention, in a vehicle comprising a 3:1 mixture of acetone:ethanol; • A mixture of 100 μg of euphol and 2.5 μg TPA, per ear, in a vehicle comprising a 3:1 mixture of acetone:ethanol.
5-member groups of mice were topically applied, in the inner surface of the ears, the compositions above. The thickness of the ears, before and after exposure to the tested compositions, was measured using a digital micrometer, and the responses were expressed as mμ.

[3] = test system: mice; assay: Inflammatory nociception induced by carragenan, Von Frey filament; conditions: acute; euphol 30 μg/kg oral 1 h before, dexamethasone 0.5 mg/kg s.c. 4 h before carragenan 300 μg/paw; 0.6 g Von Frey; FIGS. 3A, 3B
Procedure: as §1
The animals' nociceptive mechanical threshold was evaluated as the response frequency of paw withdrawal after ten applications of a Von Frey filament (VHF, Stoelting, Chicago, USA). […] The Von Frey filament was applied to the right hind paw, watching the criteria of (1) application perpendicular to the plantar surface with enough pressure to bend the filament, so as to ensure total pressure; (2) the animals were evaluated when all four paws were accommodated on the wire mesh; (3) a paw withdrawal response was considered when the animal removed the paw entirely from the wire mesh; (4) each animal was stimulated 10 consecutive times, with 1 second duration each stimulation; (5) each paw withdrawal was considered as 10% of a response, with 10 withdrawals corresponding to 100% response. […]
The animals were treated orally with euphol (30 μg/kg) one hour before the carragenan injection. […] Hypernociception was evaluated hourly during 8 hours with a 0.6 g Von Frey filament, as well as after 24 and 48 hours after carragenan injection.

[4] = test system: mice; assay: Persistent inflammatory nociception induced by CFA, Von Frey filament; conditions: FIGS. 4A; for mechanical hypernociception induced by CFA, acute treatment: euphol 30 mg/kg or gabapentin 70 mg/kg oral, 1 h before CFA, 0.6 g Von Frey, 4B
Procedure: as §1
The animals' nociceptive mechanical threshold was evaluated as the response frequency of paw withdrawal after ten applications of a Von Frey filament (VHF, Stoelting, Chicago, USA). The animals were individually placed in 9×7×11 cm transparent acrylic compartments over an elevated wire mesh platform, to allow access to the paw plantar surfaces. The Von Frey filament was applied to the right hind paw, watching the criteria of (1) application perpendicular to the plantar surface with enough pressure to bend the filament, so as to ensure total pressure; (2) the animals were evaluated when all four paws were accommodated on the wire mesh; (3) a paw withdrawal response was considered when the animal removed the paw entirely from the wire mesh; (4) each animal was stimulated 10 consecutive times, with 1 second duration each stimulation; (5) each paw withdrawal was considered as 10% of a response, with 10 withdrawals corresponding to 100% response. […]
Animals were treated orally with 30 mg/kg euphol or 70 mg/kg gabapentin (positive control), 1 hour before the CFA injection. The mechanical hypernociception was measured through stimulation with a 0.6 g Von Frey filament in time intervals of 1, 2, 4, 6, 8, 24 and 48 hours after CFA injection, and up to the re-establishment of the nociceptive response. […] For that, animals received daily 30 mg/kg euphol, orally, for 5 days, and hypernociception was evaluated once a day, 4 hours after the first administration. Mechanical hypernociception was evaluated until the return of the painful response. […]

[5] = test system: mice; assay: Neuropathic pain induced by partial constriction of the sciatic nerve, Von Frey filament; conditions: FIGS. 5A; for mechanical nociceptive response induced by partial constriction of the sciatic nerve, acute treatment: euphol 30 mg/kg or gabapentin 70 mg/kg oral on 4th post-operatory day, 5B; for mechanical hypernociception induced by partial constriction of the sciatic nerve, prolonged treatment: once a day for 5 days from the 6th day, 5C
Procedure: as §1
The animals' nociceptive mechanical threshold was evaluated as the response frequency of paw withdrawal after ten applications of a Von Frey filament (VHF, Stoelting, Chicago, USA). The animals were individually placed in 9×7×11 cm transparent acrylic compartments over an elevated wire mesh platform, to allow access to the paw plantar surfaces. The Von Frey filament was applied to the right hind paw, watching the criteria of (1) application perpendicular to the plantar surface with enough pressure to bend the filament, so as to ensure total pressure; (2) the animals were evaluated when all four paws were accommodated on the wire mesh; (3) a paw withdrawal response was considered when the animal removed the paw entirely from the wire mesh; (4) each animal was stimulated 10 consecutive times, with 1 second duration each stimulation; (5) each paw withdrawal was considered as 10% of a response, with 10 withdrawals corresponding to 100% response.
The procedure here employed was similar to the one described for rats (Pain, 43:205-218, 1990), modified for mice ((Pain, 76:215-222, 1998), and standardized by Bortolanza et al (Eur J Pharmacol., 453:203-208, 2002). The mice were anesthetized with 7% chloral hydrate (0.6% ml/kg […]). Then the sciatic nerve was exposed on top of the thigh about the sciatic trifurcation, and ⅓-½ of the dorsal portion was tied with a suture filament no. 8. In the false-operated group, the sciatic nerve was exposed without the tying. On the 4th post-operatory day, a group of animals was treated orally with 30 mg/kg euphol, and another group treated orally with 70 mg/kg gabapentin, as a positive control. In predetermined times after the treatment (1, 2, 4, 6, 8, 24 and 48 hours) the mechanical threshold was evaluated, through stimulation with a 0.6 Von Frey filament. To assess the effect of the prolonged treatment, the animals were daily administered euphol, from the 6th day, for 5 days and the mechanical hypernociception was evaluated once a day, 4 h after the first administration, until the return of the nociceptive response similar to the control group. After that, the prolonged treatment protocol was repeated to evaluate a possible development of tolerance to the compound.

Row | SMILES | PKC activity (ELISA absorbance) vs vehicle group ([1]; TPA 2.5 μg/ear) | inhibitory effect on ear thickness increase (inflammation) [2] | PKC activity increase induced by TPA (ELISA absorbance) ([1]; 100 μg euphol + 2.5 μg TPA per ear) | inflammatory mechanical hypernociception induced by carragenan (frequency of response, AUC) [3] | mechanical hypernociception induced by CFA, acute treatment [4] | nociceptive response caused by CFA, prolonged treatment ([4]; once a day for 5 days, euphol 30 mg/kg oral, 4C) | mechanical nociceptive response induced by partial constriction of the sciatic nerve, acute treatment [5] | mechanical hypernociception induced by partial constriction of the sciatic nerve, prolonged treatment [5]
1 | CCCCCCCCCCCCCC(=O)O[C@@H]1[C@@H](C)[C@@]2(O)[C@@H](C=C(CO)C[C@]3(O)C(=O)C(C)=C[C@@H]23)[C@@H]2C(C)(C)[C@]12OC(C)=O [TPA, tetradecanoylphorbol-13-acetate, reference compound] | significant increase in the PKC activity | – | – | – | – | – | – | –
2 | CC(C)=CCC[C@@H](C)[C@@H]1CC[C@]2(C)C3=C(CC[C@@]12C)[C@@]1(C)CC[C@H](O)C(C)(C)[C@@H]1CC3 [euphol] | – | significant even up to 24 hours after the treatment | significantly reduces the increase in PKC activity induced by TPA | significantly reduced | reduced significantly | inhibition of the nociceptive response caused by CFA during the 6 following days of treatment | inhibited in a significant manner | reduced in a significant manner
3 | NCC1(CC(=O)O)CCCCC1 [gabapentin, reference compound] | – | – | – | – | close to the effect obtained with gabapentin | – | inhibited in a significant manner | reduced in a significant manner
